Laboratory results: article PMC4750701, “Role of Mitochondrial RNA Polymerase in the Toxicity of Nucleotide Inhibitors of Hepatitis C Virus” (Antimicrobial Agents and Chemotherapy, 2016)

Key:
[1] = biological target: T1, RNA PolI (Rattus norvegicus, UniProt O54889); test: RNA PolI inhibition assay; format: biochemical; conditions: NTP analogs 0 to 500 μM; read-out: Mean IC50 ± SD for RNA PolI
T1 construct: complexes were isolated from rat NSN1 cells and HeLa cells, respectively; made in house; host or cells: rat NSN1 cells expressing a FLAG-tagged Pol I subunit
Excerpt: (§1) Human DNA polymerase alpha, isolated from HeLa cell extracts, was from CHIMERx (Madison, WI). Recombinant human DNA polymerase beta, expressed in E. coli, was a gift from Zucai Suo at The Ohio State University. Recombinant human DNA polymerase gamma (including both the large subunit and the small subunit) was cloned, expressed, and purified from insect cells by Gilead Sciences (Foster City, CA) ([13]). RNA PolII was purchased as part of the HeLaScribe nuclear extract in vitro transcription system kit from Promega (Madison, WI). The recombinant human PolRMT and the transcription factors mitochondrial transcription factor A (mtTFA) and B2 (mtTFB2) were purchased from Enzymax (Lexington, KY). FLAG epitope-tagged RNA PolI and PolIII complexes were isolated from rat NSN1 cells and HeLa cells, respectively ([17], [18]). The inhibition of DNA polymerases alpha, beta, and gamma, PolRMT, and PolII and the rate of single-nucleotide incorporation by PolRMT have been described previously in detail ([12], [13], [19]). Inhibition of RNA PolI and PolIII was studied using published methods ([20], [21]). All concentrations were final unless noted otherwise. For the RNA PolI inhibition assay, a reaction mixture containing 50 mM HEPES (pH 7.9), 20% glycerol, 100 mM KCl, 1 mM dithiothreitol (DTT), 50 μg/ml calf thymus DNA, 4 mM MgCl2, 5 or 80 μM UTP (0.25 μl of [5,6-^3H]UTP, >25 Ci/mmol; PerkinElmer), 1 mM noncompeting NTP, competing NTP (5 μM for GTP, CTP, and UTP and 25 μM for ATP), and various concentrations (0 to 500 μM) of NTP analogs was preincubated at 30°C for 5 min. […] After incubation at 30°C for 20 min to 1 h, the reactions were terminated by pipetting the mixtures onto DEAE-cellulose discs (DE81; Whatman), and the products analyzed as described previously ([20], [21]).

[2] = biological target: T2, RNA PolIII (Homo sapiens, UniProt O14802+Q9NW08); test: RNA PolIII inhibition assay; format: biochemical; conditions: competing NTP 100 μM CTP and GTP, 500 μM ATP; read-out: Mean IC50 ± SD for RNA PolIII
T2 construct: complexes were isolated from rat NSN1 cells and HeLa cells, respectively; made in house; host or cells: HeLa cells expressing a FLAG-tagged Pol III subunit
Excerpt: as §1
The RNA PolIII inhibition assay was conducted in a similar manner, except that the concentrations of the competing NTP were modified to 100 μM for CTP and GTP and 500 μM for ATP to compensate for the low assay signal at lower NTP concentrations.

T1 sequence (O54889 whole entry): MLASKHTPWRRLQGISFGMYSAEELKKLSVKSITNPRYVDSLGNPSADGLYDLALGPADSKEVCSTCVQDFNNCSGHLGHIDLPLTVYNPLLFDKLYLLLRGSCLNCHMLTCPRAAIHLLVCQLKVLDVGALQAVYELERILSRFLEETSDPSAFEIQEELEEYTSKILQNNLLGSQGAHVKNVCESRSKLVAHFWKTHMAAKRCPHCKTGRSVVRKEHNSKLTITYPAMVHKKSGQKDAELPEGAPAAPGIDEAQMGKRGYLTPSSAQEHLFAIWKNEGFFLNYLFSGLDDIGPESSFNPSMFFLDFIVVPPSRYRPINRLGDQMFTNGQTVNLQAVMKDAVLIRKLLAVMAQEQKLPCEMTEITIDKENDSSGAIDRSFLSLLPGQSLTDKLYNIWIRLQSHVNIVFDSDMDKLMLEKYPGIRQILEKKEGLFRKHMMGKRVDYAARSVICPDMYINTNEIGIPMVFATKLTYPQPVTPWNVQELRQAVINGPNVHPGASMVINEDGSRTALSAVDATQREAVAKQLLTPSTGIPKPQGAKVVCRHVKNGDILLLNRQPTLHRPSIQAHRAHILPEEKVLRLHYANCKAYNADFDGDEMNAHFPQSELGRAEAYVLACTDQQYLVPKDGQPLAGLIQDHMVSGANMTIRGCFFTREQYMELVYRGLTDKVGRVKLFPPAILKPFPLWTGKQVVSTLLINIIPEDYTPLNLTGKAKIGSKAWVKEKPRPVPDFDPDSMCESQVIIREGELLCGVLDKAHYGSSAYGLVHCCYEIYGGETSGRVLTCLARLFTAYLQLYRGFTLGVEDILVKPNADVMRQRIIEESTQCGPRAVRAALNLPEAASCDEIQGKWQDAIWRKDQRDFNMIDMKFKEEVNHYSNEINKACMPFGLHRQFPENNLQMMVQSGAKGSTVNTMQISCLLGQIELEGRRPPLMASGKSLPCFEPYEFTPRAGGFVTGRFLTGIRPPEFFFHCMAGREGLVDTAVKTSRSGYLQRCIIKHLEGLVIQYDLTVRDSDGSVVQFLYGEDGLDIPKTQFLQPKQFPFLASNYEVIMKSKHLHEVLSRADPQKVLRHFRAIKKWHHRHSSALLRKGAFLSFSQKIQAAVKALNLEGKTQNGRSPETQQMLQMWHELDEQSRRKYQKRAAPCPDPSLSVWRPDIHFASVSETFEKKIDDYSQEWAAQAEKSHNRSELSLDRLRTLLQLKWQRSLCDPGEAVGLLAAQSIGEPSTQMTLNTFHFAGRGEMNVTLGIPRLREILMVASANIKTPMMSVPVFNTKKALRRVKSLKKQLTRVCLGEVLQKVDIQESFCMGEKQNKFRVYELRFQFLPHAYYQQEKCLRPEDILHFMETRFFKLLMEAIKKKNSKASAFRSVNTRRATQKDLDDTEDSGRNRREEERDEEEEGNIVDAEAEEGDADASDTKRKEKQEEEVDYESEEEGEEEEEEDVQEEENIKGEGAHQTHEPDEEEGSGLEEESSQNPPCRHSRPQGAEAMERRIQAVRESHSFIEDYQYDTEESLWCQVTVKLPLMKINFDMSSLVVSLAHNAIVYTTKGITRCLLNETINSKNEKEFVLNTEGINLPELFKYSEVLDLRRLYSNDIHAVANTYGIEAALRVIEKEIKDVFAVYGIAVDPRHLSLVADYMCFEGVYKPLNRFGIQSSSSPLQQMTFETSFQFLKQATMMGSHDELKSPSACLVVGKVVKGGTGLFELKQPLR

C[C@@]1(O)[C@H](O)[C@@H](COP(=O)(O)OP(=O)(O)OP(=O)(O)O)O[C@H]1n1cnc2c(=O)[nH]c(N)nc21 [2′CMeGTP]
IC50 [1]: 300 ± 60 µM
IC50 [2]: > 500 µM
